“And” between values parts separate entries of the source, which are not always exact repeats. Equal entries are not always repeated. “Also recorded” adds a separate entry of the source.
Tests used:
[1] = In vivo non-clinical PK, dog
Method: (§1) The in vivo non-clinical PK profile of I-57 was investigated in mouse, rat, dog and cynomolgus monkey using I-57 free base. […] After p.o. administration, the absorption of I-57 was rapid with peak blood concentration (Tmax) occurring between 1 and 4 hours. […] In high dose PK and toxicology studies with I-57 the exposures in mouse, rat and monkey increased with dose.
(§2) The binding to plasma protein of I-57 in vitro was moderate in all species, with an observed difference between rodents (73% in mouse, 76% in rat) and non-rodents (52% in dog and monkey, 54% in human). Blood-to-plasma ratios were in the range of 0.7-1.8 (human 1.1-1.3). […] Based on results with non-radiolabeled I-57 in the dog, a significant amount of unchanged I-57 was renally eliminated (˜20% of dose).

CYP2C8 = CYP2C8 (Homo sapiens, UniProt P10632); experiment: Time-dependent CYP inhibition: CYP2C8; format: in vitro ADME; settings: I-57 concentrations of up to 100 μM
Chain of CYP2C8 (P10632 whole entry): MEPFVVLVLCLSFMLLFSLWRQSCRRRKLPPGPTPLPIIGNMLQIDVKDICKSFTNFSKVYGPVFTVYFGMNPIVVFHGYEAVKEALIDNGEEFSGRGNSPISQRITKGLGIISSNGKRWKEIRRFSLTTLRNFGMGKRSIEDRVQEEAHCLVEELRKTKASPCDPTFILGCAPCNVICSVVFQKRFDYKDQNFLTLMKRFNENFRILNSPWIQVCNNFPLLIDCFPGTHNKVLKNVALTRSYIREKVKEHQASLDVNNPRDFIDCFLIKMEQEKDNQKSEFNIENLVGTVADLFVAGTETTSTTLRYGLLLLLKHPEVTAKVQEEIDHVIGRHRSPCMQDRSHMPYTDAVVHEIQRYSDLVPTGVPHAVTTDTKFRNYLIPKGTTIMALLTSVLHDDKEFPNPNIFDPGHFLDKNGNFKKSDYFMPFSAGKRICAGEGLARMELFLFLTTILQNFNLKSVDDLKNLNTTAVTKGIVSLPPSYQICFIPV

CYP3A = experiment: Time-dependent CYP inhibition: CYP3A; format: in vitro ADME; settings: I-57 concentrations of up to 100 μM
IKZF2 [2] = target: T1, IKZF2 (Homo sapiens, UniProt Q96SW2+Q9UKS7); experiment: IKZF2 degradation in primary human PBMCs; format: cell-based; design: endogenous in cells; host or cells: primary human PBMCs
T1 sequence (Q9UKS7 whole entry): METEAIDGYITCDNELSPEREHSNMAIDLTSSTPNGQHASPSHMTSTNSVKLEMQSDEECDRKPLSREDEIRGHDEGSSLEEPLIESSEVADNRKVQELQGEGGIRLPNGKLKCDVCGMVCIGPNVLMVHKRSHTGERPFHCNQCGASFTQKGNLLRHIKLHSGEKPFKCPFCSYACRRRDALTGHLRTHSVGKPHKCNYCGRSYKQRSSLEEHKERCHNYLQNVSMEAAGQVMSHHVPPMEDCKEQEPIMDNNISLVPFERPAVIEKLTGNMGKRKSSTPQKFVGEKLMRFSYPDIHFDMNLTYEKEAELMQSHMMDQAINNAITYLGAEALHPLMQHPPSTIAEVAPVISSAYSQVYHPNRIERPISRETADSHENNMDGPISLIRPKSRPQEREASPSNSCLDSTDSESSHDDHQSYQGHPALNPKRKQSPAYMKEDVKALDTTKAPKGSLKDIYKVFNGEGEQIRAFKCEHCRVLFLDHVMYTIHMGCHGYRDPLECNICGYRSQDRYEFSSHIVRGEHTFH
T1 sequence (Q96SW2 whole entry): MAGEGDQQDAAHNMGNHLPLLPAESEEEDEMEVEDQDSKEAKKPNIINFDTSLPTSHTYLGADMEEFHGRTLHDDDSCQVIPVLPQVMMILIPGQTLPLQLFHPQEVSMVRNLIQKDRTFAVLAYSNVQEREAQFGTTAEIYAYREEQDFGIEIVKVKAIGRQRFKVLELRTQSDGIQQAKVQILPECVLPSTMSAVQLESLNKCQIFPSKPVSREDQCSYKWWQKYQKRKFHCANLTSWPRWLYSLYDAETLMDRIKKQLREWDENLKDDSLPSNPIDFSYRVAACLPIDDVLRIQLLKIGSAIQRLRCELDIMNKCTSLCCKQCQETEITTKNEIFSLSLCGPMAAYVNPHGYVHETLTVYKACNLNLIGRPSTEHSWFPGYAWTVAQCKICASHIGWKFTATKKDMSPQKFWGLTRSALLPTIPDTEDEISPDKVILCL
T1 sequence (Q16531 whole entry partner): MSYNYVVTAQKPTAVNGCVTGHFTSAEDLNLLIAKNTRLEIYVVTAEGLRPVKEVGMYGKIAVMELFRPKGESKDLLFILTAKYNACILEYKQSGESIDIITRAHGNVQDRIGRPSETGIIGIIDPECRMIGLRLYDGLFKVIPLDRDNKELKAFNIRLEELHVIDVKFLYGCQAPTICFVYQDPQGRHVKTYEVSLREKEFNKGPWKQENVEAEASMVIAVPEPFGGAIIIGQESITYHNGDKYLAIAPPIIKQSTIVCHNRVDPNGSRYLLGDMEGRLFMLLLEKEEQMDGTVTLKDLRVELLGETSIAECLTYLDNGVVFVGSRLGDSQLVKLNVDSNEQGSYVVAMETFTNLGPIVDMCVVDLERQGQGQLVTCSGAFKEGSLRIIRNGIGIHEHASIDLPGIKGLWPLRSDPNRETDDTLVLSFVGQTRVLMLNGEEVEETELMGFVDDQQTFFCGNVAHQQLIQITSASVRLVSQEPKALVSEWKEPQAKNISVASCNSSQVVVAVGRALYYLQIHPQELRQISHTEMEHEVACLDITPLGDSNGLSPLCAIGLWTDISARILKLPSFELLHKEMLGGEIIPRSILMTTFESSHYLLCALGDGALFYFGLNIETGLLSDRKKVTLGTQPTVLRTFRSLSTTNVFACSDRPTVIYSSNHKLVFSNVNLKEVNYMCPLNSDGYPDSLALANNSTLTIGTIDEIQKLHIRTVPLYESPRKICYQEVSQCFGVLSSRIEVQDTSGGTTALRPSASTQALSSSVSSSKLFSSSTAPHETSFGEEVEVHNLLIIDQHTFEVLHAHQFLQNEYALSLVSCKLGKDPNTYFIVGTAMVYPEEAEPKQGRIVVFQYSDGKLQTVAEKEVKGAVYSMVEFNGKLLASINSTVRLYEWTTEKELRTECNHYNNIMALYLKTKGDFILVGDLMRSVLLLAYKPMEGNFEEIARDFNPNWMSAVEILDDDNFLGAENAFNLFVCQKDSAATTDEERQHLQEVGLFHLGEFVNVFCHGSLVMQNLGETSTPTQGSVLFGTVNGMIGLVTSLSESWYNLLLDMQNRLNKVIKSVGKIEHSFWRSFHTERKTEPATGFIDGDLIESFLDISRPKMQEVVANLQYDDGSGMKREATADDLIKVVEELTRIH
Source text: (§3) Although the specific transcriptional targets of IKZF2 remain to be defined, IKZF2 binds to and represses transcription from the IL-2 promoter region (Baine 2013). […] Finally, an in vitro assay recapitulating hallmarks of T cell dysfunction/exhaustion, by sequential TCR stimulation of isolated primary human T cells, was used to test the hypothesis that […] would rescue the exhausted phenotype and enhance Teff cell activity. […] In addition to IKZF1, other known cereblon substrates including translation termination factor G1 to S phase transition 1 (GSPT1) are not degraded by I-57 (FIG. 1).
(§4) I-57 mediated degradation of IKZF2 was assessed in primary PBMCs obtained from rabbit, dog, pig, cynomolgus monkey, and human, and in primary splenocytes of mouse and rat. […] Species-specificity due to species specific alteration CRBN primary structure have previously been described with other compounds known to interact with the CRBN ubiquitin ligase complex to elicit protein specific degradation (Krönke et al, 2015).

IKZF2 [3] = target: T1, IKZF2; experiment: Degradation of IKZF2 in primary PBMCs, human (FIG. 3); format: cell-based; design: endogenous in cells; host or cells: primary human PBMCs
Source text: FIG. 3. is a bar graph showing the degradation of IKZF2 in primary PBMCs obtained from rabbit, dog, pig, cynomolgus monkey and human, and in primary splenocytes of mouse and rat and treated with Compound I-57.

[4] = ECG (QTc) in monkeys, single dose and 4-week GLP repeat dose study; format: in vivo, monkey
Method: (§5) The risk of possible QTc interval prolongation at the starting dose is therefore considered low. QT prolongation may become clinically significant during escalation but are not anticipated to be dose limiting until doses at or above 640 mg. Monitoring and other measures to mitigate potential risk of arrhythmia is addressed in Example 3 below.

CYP3A4 = CYP3A4 (Homo sapiens, UniProt P08684); experiment: Enzyme phenotyping with human recombinant CYPs; format: in vitro ADME; settings: human recombinant CYPs in vitro; preliminary assessment
Chain of CYP3A4 (P08684 whole entry): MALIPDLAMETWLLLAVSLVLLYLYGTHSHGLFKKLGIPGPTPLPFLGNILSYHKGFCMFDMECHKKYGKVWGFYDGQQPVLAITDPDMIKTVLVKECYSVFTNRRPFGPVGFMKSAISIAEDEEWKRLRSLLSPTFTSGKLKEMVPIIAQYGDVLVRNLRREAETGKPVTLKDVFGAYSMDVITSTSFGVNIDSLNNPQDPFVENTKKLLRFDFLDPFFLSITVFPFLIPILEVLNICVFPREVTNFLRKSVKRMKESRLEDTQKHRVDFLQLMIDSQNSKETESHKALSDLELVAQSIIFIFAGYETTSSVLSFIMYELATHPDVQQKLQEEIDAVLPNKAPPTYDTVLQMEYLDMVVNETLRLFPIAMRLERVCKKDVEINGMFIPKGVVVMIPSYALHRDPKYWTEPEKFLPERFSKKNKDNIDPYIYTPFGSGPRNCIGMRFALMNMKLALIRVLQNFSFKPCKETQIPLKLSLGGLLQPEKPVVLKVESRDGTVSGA
Method: In vivo in the dog, very minor amounts of the N-dealkylation product and products derived from hydrolysis of the glutarimide moiety were detected in plasma. While the contribution of CYP-mediated oxidative metabolism to systemic clearance is unknown, a preliminary assessment of the enzymes involved was conducted using human recombinant CYPs in vitro.

plasma protein [5] = experiment: Plasma protein binding in vitro, mouse; format: in vitro ADME
Source text: as §2

CYP2C19 = CYP2C19 (Homo sapiens, UniProt P33261); experiment: CYP inhibition: CYP2C19; format: in vitro ADME; settings: I-57 concentrations of up to 100 μM
Chain of CYP2C19 (P33261 whole entry): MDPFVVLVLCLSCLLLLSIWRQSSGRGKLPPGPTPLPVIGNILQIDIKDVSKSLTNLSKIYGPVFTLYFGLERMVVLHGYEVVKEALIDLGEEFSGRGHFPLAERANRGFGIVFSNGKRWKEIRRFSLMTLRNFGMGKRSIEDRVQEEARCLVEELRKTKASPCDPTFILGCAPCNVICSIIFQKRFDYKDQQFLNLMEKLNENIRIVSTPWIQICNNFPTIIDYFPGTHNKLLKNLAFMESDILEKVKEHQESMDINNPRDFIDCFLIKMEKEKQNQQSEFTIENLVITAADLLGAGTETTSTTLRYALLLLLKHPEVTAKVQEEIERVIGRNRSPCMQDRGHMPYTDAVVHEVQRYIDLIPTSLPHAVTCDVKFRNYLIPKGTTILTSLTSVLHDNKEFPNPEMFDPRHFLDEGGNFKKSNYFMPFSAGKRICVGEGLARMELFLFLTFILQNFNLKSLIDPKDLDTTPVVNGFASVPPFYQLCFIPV

IKZF2 [6] = experiment: IKZF2 degradation in primary cynomolgus monkey PBMCs; format: cell-based; settings: primary monkey PBMCs in vitro
Source text: as §3, §4

IKZF2 [7] = target: T1, IKZF2; experiment: IKZF2 protein levels in total tumor-infiltrating lymphocytes by immunohistochemistry, hPBMC AdT model with MDA-MB231 xenografts (FIG. 8A, 8B); format: in vivo; design: endogenous in cells; host or cells: primary human PBMCs; settings: 24 h post the 14th daily dose
Method: FIG. 6 is a pictorial representation of the multi-dose PK/PD study design in the human PBMC adoptive transfer mouse model harboring MDA-MB231 xenografts. Fourteen consecutive daily doses of Compound I-57 was administered at 0.3 mg/kg, 1 mg/kg, 3 mg/kg or 30 mg/kg.
FIG. 8A is a bar graph showing the change in the IKZF2 protein levels in total tumor-infiltrating lymphocytes by immunohistochemistry (IHC) at 24 h post the 14th daily dose of 1, 3 or 30 mg/kg Compound I-57.

[8] = In vivo non-clinical PK, rat
Method: as §1

plasma protein [9] = experiment: Plasma protein binding in vitro, rat; format: in vitro ADME
Source text: as §2

plasma protein [10] = experiment: Plasma protein binding in vitro, human; format: in vitro ADME
Source text: as §2

hERG = hERG (Homo sapiens, UniProt Q12809); experiment: In vitro hERG inhibition; format: biochemical
Chain of hERG (Q12809 whole entry): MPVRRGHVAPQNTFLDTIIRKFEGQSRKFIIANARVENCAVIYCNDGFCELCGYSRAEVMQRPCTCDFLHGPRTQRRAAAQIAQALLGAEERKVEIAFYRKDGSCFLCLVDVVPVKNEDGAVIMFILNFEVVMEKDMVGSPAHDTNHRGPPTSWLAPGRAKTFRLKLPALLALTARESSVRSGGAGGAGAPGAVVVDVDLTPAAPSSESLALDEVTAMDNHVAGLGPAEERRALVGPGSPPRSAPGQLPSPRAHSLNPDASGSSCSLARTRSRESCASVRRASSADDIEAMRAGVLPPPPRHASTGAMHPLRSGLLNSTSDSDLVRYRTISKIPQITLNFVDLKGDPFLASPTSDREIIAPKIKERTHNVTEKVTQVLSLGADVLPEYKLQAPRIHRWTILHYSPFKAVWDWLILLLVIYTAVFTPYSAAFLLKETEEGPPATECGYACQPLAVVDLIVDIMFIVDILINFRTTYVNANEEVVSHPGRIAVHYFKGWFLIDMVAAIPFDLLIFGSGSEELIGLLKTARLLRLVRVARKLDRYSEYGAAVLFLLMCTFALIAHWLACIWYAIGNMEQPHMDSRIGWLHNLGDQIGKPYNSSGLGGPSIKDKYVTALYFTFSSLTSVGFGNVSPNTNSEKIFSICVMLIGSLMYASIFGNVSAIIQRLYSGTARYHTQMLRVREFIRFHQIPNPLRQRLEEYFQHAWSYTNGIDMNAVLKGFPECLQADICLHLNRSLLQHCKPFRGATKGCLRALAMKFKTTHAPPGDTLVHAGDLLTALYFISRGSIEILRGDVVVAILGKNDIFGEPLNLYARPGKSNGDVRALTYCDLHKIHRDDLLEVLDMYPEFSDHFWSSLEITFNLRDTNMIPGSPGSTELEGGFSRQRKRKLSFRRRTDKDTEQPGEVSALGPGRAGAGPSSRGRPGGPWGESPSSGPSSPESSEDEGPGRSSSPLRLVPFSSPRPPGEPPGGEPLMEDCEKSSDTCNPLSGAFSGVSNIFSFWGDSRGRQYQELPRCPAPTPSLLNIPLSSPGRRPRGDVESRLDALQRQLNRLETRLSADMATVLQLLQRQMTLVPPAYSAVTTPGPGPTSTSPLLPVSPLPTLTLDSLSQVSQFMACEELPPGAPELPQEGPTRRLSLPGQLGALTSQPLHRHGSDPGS
Method: as §5

IKZF2 [11] = target: T1, IKZF2; experiment: IKZF2 in tumor-infiltrating lymphocytes by IHC, hPBMC AdT model; format: in vivo, NSG mice with human PBMCs; design: endogenous in cells; host or cells: human lymphocytes (CD4+FOXP3+ Tregs; total tumor-infiltrating lymphocytes) from healthy-donor PBMC transferred into NSG mice; settings: 24 h post the 14th dose
Method: IKZF2 protein levels in total tumor-infiltrating lymphocytes were also assessed by immunohistochemistry (IHC) at 24 h post the 14th dose of 1, 3 or 30 mg/kg I-57. […] Overall, IKZF2 degradation assessed by IHC was generally consistent with our findings in Tregs by flow cytometry, though dose dependency was less apparent. Together, the data support the finding of profound I-57-mediated IKZF2 degradation in tumor-infiltrating lymphocytes (FIG. 8A and FIG. 8B).

With O=C1CCC(N2Cc3cc(C4CCN(Cc5ccccc5)CC4)ccc3C2=O)C(=O)N1 (stereo not shown) [Compound I-57, 3-(5-(1-benzylpiperidin-4-yl)-1-oxoisoindolin-2-yl)piperidine-2,6-dione] the bioavailability ([1]; blood, po) was 91%, the “unchanged I-57 renally eliminated” value ([1]; non-radiolabeled I-57) was ~20 % of dose and the “time-dependent inhibition of CYP2C8” value (CYP2C8) was “no apparent time-dependent inhibition”. For the same compound, the “time-dependent inhibition of CYP3A” value (CYP3A) was “no apparent time-dependent inhibition”, the DC50 (IKZF2 [2]; human PBMC, read-out: AC50 for IKZF2 degradation (converted)) was ~4 nM and ~4.07 nM and the “degradation of IKZF2” value (IKZF2 [2]; primary human PBMCs in vitro) was “potent degradation; also recorded: Degradation was observed”. For the same compound, the “degradation of IKZF2” value (IKZF2 [3]) was “degradation was observed”, the “cardiac electrical instability or wave abnormality” value [4] was “No cardiac electrical instability or wave abnormality was observed” and the QT effects ([4]; 3 mg/kg) was “no QT effects were noted”. For the same compound, the “free Cmax in monkeys at 3 mg/kg relative to free Cmax predicted at the clinical starting dose of 20 mg” value ([4]; 3 mg/kg) was about 8.4 times, the “time of highest magnitude of the QTc effect” value ([4]; coinciding with Tmax) was 0.5 to 5.5 h and the “increase in QTc interval” value ([4]; doses >10 mg/kg, single dose and 4-week GLP repeat dose study) was “at least 30 mSec”. The “CYP enzyme mediating oxidative metabolism” value (CYP3A4) was “CYP3A4 was found to primarily mediate these reactions”, the “binding to plasma protein” value (plasma protein [5]) was 73% and the “inhibition of CYP2C19” value (CYP2C19) was “very little and no inhibition”. For the same compound, the “degradation of IKZF2” value (IKZF2 [6]) was “potent degradation; also recorded: Degradation was observed”, the “maximal level of IKZF2 degradation in total tumor-infiltrating lymphocytes (IHC)” value (IKZF2 [7]; 30 mg/kg) was “approximately 85%” and the “reduction in IKZF2 levels in total tumor-infiltrating lymphocytes (IHC)” value (IKZF2 [7]; 1, 3 and 30 mg/kg doses) was “Robust reduction”. The “dose proportionality of AUC” value ([8]; between 3 mg/kg and 300 mg/kg) was “roughly dose proportional”, the bioavailability ([8]; blood, po) was 90% and the “binding to plasma protein” value (plasma protein [9]) was 76%. The “binding to plasma protein” value (plasma protein [10]) was 54%, the IC50 (hERG) was 7100 nM and the “IKZF2 degradation in total tumor-infiltrating lymphocytes” value (IKZF2 [11]; 30 mg/kg) was “approximately 85%”. For the same compound, the “IKZF2 levels in total tumor-infiltrating lymphocytes” value (IKZF2 [11]; all dose levels (1, 3 or 30 mg/kg)) was “Robust reduction in IKZF2 levels”.

Source: patent US20230321067A1, “DOSING REGIMEN COMPRISING 3-(1-OXOISOINDOLIN-2-YL)PIPERIDINE-2,6-DIONE DERIVATIVES” (Novartis AG, priority 2020, published 2023)
